Test [1] concerns circulating lymphocytes. The test is described as follows: Blood Lymphocyte Reduction Assay (BLR) in Rodents. The class given is in vivo. Conditions: Lewis rats, oral, 1.0 mg/kg, vs vehicle group. As for the experimental part:
Lewis rats were dosed orally with test article (as a solution or suspension in the vehicle) or vehicle alone (polyethylene glycol 300, “PEG300”). Blood was drawn at 4 hr and 24 h by retro-orbital bleeding. Blood lymphocyte counts were determined on an ADVIA 120 Hematology Analyzer (Siemens Healthcare Diagnostics). The results were measured as a reduction in the percentage of circulating lymphocytes as compared to the vehicle treated group at the 4 hr and 24 hr measurement. The results represent the average results of all animals within each treatment group (n=3-4).
The following examples were tested in the Blood Lymphocyte Reduction assay (BLR) described hereinabove and the results are shown in Table C for rats.

The target of test [2] is T1, S1P1 (Homo sapiens (Human), UniProt P21453). The test is described as follows: Receptor [35S] GTPγS Binding Assay, S1P1. The class given is biochemical. To be noted: membranes from S1P1/CHO cells. How it is done: Membranes prepared from S1P1/CHO cells or EDG3-Ga15-b1a HEK293T cells were added to the compound plate (40 μl/well, final protein 3 μg/well) with MULTIDROP®. [^35S] GTP (1250 Ci/mmol, Perkin Elmer) was diluted in assay buffer: 20 mM HEPES, pH7.5, 10 mM MgCl2, 150 mM NaCl, 1 mM EGTA, 1 mM DTT, 10 μM GDP, 0.1% fatty acid free BSA, and 10 μg/ml Saponin to 0.4 nM. 40 μl of the [^35S] GTP solution was added to the compound plate with a final concentration of 0.2 nM. The reaction was kept at room temperature for 45 min. At the end of incubation, all the mixtures in the compound plate were transferred to Millipore 384-well FB filter plates via the VELOCITY 11® Vprep liquid handler. The filter plate was washed with water 4 times by using the manifold Embla plate washer and dried at 60° C. for 45 min. MicroScint 20 scintillation fluid (30 μl) was added to each well for counting on the Packard TOPCOUNT®. […] The results in Table B were rounded to two digits. […]
T1 sequence (P21453 whole entry): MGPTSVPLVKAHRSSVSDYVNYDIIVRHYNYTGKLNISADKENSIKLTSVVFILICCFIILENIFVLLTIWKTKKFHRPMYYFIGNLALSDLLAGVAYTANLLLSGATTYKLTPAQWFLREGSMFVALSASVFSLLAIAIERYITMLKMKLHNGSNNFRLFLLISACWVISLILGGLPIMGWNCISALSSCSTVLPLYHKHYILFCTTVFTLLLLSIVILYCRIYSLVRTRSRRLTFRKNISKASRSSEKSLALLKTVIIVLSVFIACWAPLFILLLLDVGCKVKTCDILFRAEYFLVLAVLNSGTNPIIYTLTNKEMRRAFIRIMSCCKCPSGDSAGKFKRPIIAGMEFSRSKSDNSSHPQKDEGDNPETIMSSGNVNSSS
On the technique in general: Binding of GTPγS marks nucleotide exchange on a G protein.

Test [3] concerns the target S1P3 (Homo sapiens (Human), UniProt Q99500). The experiment in a line: Receptor [35S] GTPγS Binding Assay, S1P3. To be noted: membranes from EDG3-Ga15-b1a HEK293T cells. The format is biochemical. How it is done: Compounds were loaded in a 384 Falcon v-bottom plate (0.5 μl/well in a 11 point, 3-fold dilution). Membranes prepared from S1P1/CHO cells or EDG3-Ga15-b1a HEK293T cells were added to the compound plate (40 μl/well, final protein 3 μg/well) with MULTIDROP®. [^35S] GTP (1250 Ci/mmol, Perkin Elmer) was diluted in assay buffer: 20 mM HEPES, pH7.5, 10 mM MgCl2, 150 mM NaCl, 1 mM EGTA, 1 mM DTT, 10 μM GDP, 0.1% fatty acid free BSA, and 10 μg/ml Saponin to 0.4 nM. 40 μl of the [^35S] GTP solution was added to the compound plate with a final concentration of 0.2 nM. The reaction was kept at room temperature for 45 min. At the end of incubation, all the mixtures in the compound plate were transferred to Millipore 384-well FB filter plates via the VELOCITY 11® Vprep liquid handler. The filter plate was washed with water 4 times by using the manifold Embla plate washer and dried at 60° C. for 45 min. MicroScint 20 scintillation fluid (30 μl) was added to each well for counting on the Packard TOPCOUNT®. EC50 is defined as the agonist concentration that corresponds to 50% of the Ymax (maximal response) obtained for each individual compound tested. The results in Table B were rounded to two digits.
A smaller value for GTPγS S1P1 EC50 value indicated greater activity for the compound in the GTPγS S1P1 binding assay. A larger value for the GTPγS S1P3 EC50 value indicated less activity in the GTPγS S1P3 binding assay.

The target in test [4] is T1, S1P1. The test is described as follows: S1P1 Binding Assay. Conditions: 33P-S1P ligand, membranes from CHO cells expressing human S1P1. As for the experimental part: Membranes were prepared from CHO cells expressing human S1P1. Cells pellets (1×10^8 cells/pellet) were suspended in buffer containing 20 mM HEPES, pH 7.5, 50 mM NaCl, 2 mM EDTA and Protease Inhibitor cocktail (Roche), and disrupted on ice using the Polytron homogenizer. The homogenate was centrifuged at 20,000 rpm (48,000 g) and the supernatant was discarded. The membrane pellets were resuspended in buffer containing 50 mM HEPES, pH 7.5, 100 mM NaCl, 1 mM MgCl2, 2 mM EDTA and stored in aliquots at […] after protein concentration determination.
Membranes (2 μg/well) and 0.03 nM final concentration of 33P-S1P ligand (1 mCi/ml, American Radiolabeled Chemicals) diluted in assay buffer (50 mM HEPES, pH7.4, 5 mM MgCl2, 1 mM CaCl2, 0.5% fatty acid free BSA, 1 mM NaF) were added to the compound plates (384 Falcon v-bottom plate (0.5 μl/well in a 11 point, 3-fold dilution). Binding was performed for 45 minutes at room temperature, terminated by collecting the membranes onto 384-well Millipore FB filter plates, and radioactivity was measured by TOPCOUNT®. The competition data of the test compounds over a range of concentrations was plotted as percentage inhibition of radioligand specific binding. The IC50 is defined as the concentration of competing ligand needed to reduce specific binding by 50%.
Table A below lists S1P1 Binding IC50 values from the following examples of this invention measured in the S1P1 binding assay described hereinabove. The results in Table A were rounded to two digits.

The results in this text go back to patent US8822510B2, “Substituted 3-phenyl-1,2,4-Oxadiazole compounds” (Bristol-Myers Squibb Company, priority 2010, dated 2014).

By EC50 is commonly meant the concentration that produces a half-maximal response. For orientation: IC50 means the concentration at which inhibition is half-maximal. Read a low IC50 as higher potency.

S1P3, sequence (Q99500 whole entry): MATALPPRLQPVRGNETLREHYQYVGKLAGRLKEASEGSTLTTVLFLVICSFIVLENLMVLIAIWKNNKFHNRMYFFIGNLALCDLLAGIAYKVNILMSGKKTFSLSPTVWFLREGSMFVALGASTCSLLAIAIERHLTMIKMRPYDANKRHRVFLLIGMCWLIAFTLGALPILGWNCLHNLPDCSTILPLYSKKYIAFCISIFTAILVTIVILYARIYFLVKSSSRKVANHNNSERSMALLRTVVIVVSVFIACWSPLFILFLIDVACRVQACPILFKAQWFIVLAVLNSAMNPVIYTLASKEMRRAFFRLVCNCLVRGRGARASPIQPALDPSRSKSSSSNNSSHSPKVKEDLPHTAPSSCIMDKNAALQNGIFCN

For `O=C(O)C1CN(Cc2ccc(-c3noc(CCC4(c5ccccc5)CCCCC4)n3)cc2)C1` [Example 1, 1-(4-(5-(2-(1-phenylcyclohexyl)ethyl)-1,2,4-oxadiazol-3-yl)benzyl)azetidine-3-carboxylic acid], the “% REDUCTION IN LYMPHOCYTES AT 4 HR.” value in test [1] turned out to be 75%.

`Cc1cc(-c2noc(CCC3(c4ccc(F)cc4)CCCCC3)n2)cc(C)c1OC[C@@H](O)CO` [Example 4]: the EC50 was 0.51 nM in test [2] and 10.2 nM in test [3]. The same molecule showed an IC50 in test [4] of 0.12 nM.

As to `O=C(O)C1CN(Cc2ccc(-c3noc(CCCC4(c5ccc(F)cc5)CCCCC4)n3)cc2)C1` [Example 9, 1-(4-(5-(3-(1-(4-fluorophenyl)cyclohexyl)propyl)-1,2,4-oxadiazol-3-yl)benzyl)azetidine-3-carboxylic acid], the half-maximal effective concentration (EC50) turned out to be 0.23 nM in test [2] and 16.4 nM in test [3]. In addition, in test [4], the IC50 amounted to 0.47 nM.

For the molecule `O=C(O)C1CN(Cc2ccc(-c3noc(CCCC4(c5ccccc5)CCCCC4=O)n3)cc2)C1` (stereo not shown) [Example 11, 1-(4-(5-(3-(2-oxo-1-phenylcyclohexyl)propyl)-1,2,4-oxadiazol-3-yl)benzyl)azetidine-3-carboxylic acid], the figures for the concentration for a half-maximal effect (EC50) in test [2] and in test [3] were 2.17 nM and 58.6 nM, respectively. In test [4], this molecule came in with an IC50 of 1.68 nM.

For `O=C(O)C1CN(Cc2ccc(-c3noc(COCC4(c5ccc(F)cc5)CCCCC4)n3)cc2)C1` [Example 18, 1-(4-(5-(((1-(4-fluorophenyl)cyclohexyl)methoxy)methyl)-1,2,4-oxadiazol-3-yl)benzyl)azetidine-3-carboxylic acid], the EC50 in test [2] worked out at 0.78 nM; in test [3], 9.23 nM. Also, the IC50 in test [4] stood at 0.31 nM.

With `O=C1NC(=O)C2(CN(Cc3ccc(-c4noc(COCC5(c6ccc(Cl)cc6)CCC5)n4)cc3)C2)N1` [Example 19, 2-(4-(5-(((1-(4-chlorophenyl)cyclobutyl)methoxy)methyl)-1,2,4-oxadiazol-3-yl)benzyl)-2,5,7-triazaspiro[3.4]octane-6,8-dione], the EC50 in test [2] was found to be 1270 nM; in test [3], 5380 nM. Further, in test [4], the IC50 was 477 nM.

`Cc1cc(-c2noc(/C=C/C3(c4ccc(Cl)cc4)CCCCC3)n2)cc(C)c1OC[C@@H](O)CO` [Example 52, (2S)-3-(4-(5-((E)-2-(1-(4-chlorophenyl)cyclohexyl)vinyl)-1,2,4-oxadiazol-3-yl)-2,6-dimethylphenoxy)-1,2-propanediol]: the EC50 in test [2] came out at 8.1 nM; in test [3], 139 nM. The molecule also gave an IC50 in test [4] of 5.75 nM.

For `O=C(O)C1CN(Cc2ccc(-c3noc(CCC4(c5ccc(F)cc5)CCCCC4)n3)cc2)C1` [Example 63, 1-(4-(5-(2-(1-(4-fluorophenyl)cyclohexyl)ethyl)-1,2,4-oxadiazol-3-yl)benzyl)-3-azetidinecarboxylic acid], the results for the EC50 in test [2] and in test [3] were 2.74 nM and 4.94 nM, respectively. In test [4], the IC50 came to 0.21 nM.

In the case of `O=C(O)C1CN(Cc2ccc(-c3noc(C(F)(F)C(O)C4(c5ccc(Cl)cc5)CC4)n3)cc2)C1` (stereo not shown) [Example 85, 1-(4-(5-(2-(1-(4-chlorophenyl)cyclopropyl)-1,1-difluoro-2-hydroxyethyl)-1,2,4-oxadiazol-3-yl)benzyl)-3-azetidinecarboxylic acid], the EC50 was 700 nM in test [2] and greater than 62500 nM in test [3]. In test [4], this molecule yielded an IC50 of 135 nM.

The molecule `O=C(O)C1CN(Cc2ccc(-c3noc(/C=C/C4(c5ccc(C(F)(F)F)cc5)CCCCC4)n3)cc2)C1` [Example 88, 1-(4-(5-((E)-2-(1-(4-(trifluoromethyl)phenyl)cyclohexyl)vinyl)-1,2,4-oxadiazol-3-yl)benzyl)-3-azetidinecarboxylic acid] returned an IC50 in test [4] of 26.7 nM.

Take `O=C(O)C1CN(Cc2ccc(-c3noc(/C=C/C4(c5ccc(Cl)cc5)CCCCC4)n3)cc2)C1` [Example 92, 1-(4-(5-((E)-2-(1-(4-chlorophenyl)cyclohexyl)vinyl)-1,2,4-oxadiazol-3-yl)benzyl)-3-azetidinecarboxylic acid]: the half-maximal effective concentration (EC50) in test [2] is 36.9 nM; in test [3] it was 421 nM. Also, the IC50 in test [4] worked out at 45.6 nM.

`O=C(O)C1CN(Cc2ccc(-c3noc(CCCC4(c5ccc(Cl)cc5)CCCCC4)n3)cc2)C1` [Example 98, 1-(4-(5-(3-(1-(4-chlorophenyl)cyclohexyl)propyl)-1,2,4-oxadiazol-3-yl)benzyl)-3-azetidinecarboxylic acid]: the figures for the EC50 in test [2] and in test [3] were 0.7 nM and 27.4 nM, respectively. Also, in test [4], the IC50 was determined as 0.54 nM.

Turning to `O=C(O)C1CN(Cc2ccc(-c3noc(C/C=C/C4(c5ccc(F)cc5)CCCCC4)n3)cc2)C1` [Example 100, 1-(4-(5-((2E)-3-(1-(4-fluorophenyl)cyclohexyl)-2-propen-1-yl)-1,2,4-oxadiazol-3-yl)benzyl)-3-azetidinecarboxylic acid], the EC50 was found to be 0.41 nM in test [2] and 11.7 nM in test [3]. In addition, the IC50 in test [4] was determined as 3.4 nM.

Turning to `O=C(O)C1CN(Cc2ccc(-c3noc(/C=C/C4(Cc5ccccc5)CCC4)n3)cc2)C1` [Example 103, 1-(4-(5-((E)-2-(1-benzylcyclobutyl)vinyl)-1,2,4-oxadiazol-3-yl)benzyl)-3-azetidinecarboxylic acid], the half-maximal effective concentration (EC50) stood at 17.1 nM in test [2] and 1490 nM in test [3].

As for `O=C(O)C1CN(Cc2ccc(-c3noc(CCC4(c5cccnc5)CCOCC4)n3)cc2)C1` [Example 108, 1-(4-(5-(2-(4-(3-pyridinyl)tetrahydro-2H-pyran-4-yl)ethyl)-1,2,4-oxadiazol-3-yl)benzyl)-3-azetidinecarboxylic acid], the EC50 in test [2] was 7360 nM; in test [3], greater than 62500 nM. The molecule also came in with an IC50 in test [4] of 861 nM.

Turning to `O=C(O)C1CN(Cc2ccc(-c3noc(COCC4(c5ccc(Cl)cc5)CCC4)n3)c(Cl)c2)C1` [Example 141, 1-(3-chloro-4-(5-(((1-(4-chlorophenyl)cyclobutyl)methoxy)methyl)-1,2,4-oxadiazol-3-yl)benzyl)-3-azetidinecarboxylic acid], the half-maximal effective concentration (EC50) turned out to be 50.7 nM in test [2] and 5240 nM in test [3]. Also, the half-maximal inhibitory concentration (IC50) in test [4] turned out to be 12 nM.

Consider `O=C(O)C1CN(Cc2ccc(-c3noc(COCC4(c5ccc(Cl)cc5)CCC4)n3)c(F)c2)C1` [Example 143, 1-(4-(5-(((1-(4-chlorophenyl)cyclobutyl)methoxy)methyl)-1,2,4-oxadiazol-3-yl)-3-fluorobenzyl)-3-azetidinecarboxylic acid], for which the 50% effective concentration (EC50) amounted to 17.5 nM in test [2] and 3730 nM in test [3]. Besides, in test [4], the IC50 turned out to be 9.72 nM.
